Laboratory results as given in patent US5162304A, “Pharmaceutical compositions and methods for treatment and prophylaxis of cancer” (priority 1990, dated 1992).
Several values for one entry are separate records, joined by “and”; a condition that tells them apart may be missing. Identical values can stand only once.

Experiments:
[1] = tested on: mouse neuroblastoma NAs-1 cells; test: Test 3: growth of mouse neuroblastoma NAs-1 cells; assay type: cell-based; settings: for tumor growth suppressing effect: NAs-1 cells; for growth suppressed to: treatment conditions not given
Protocol: (§1) 14-methyl-1-pentadecanol and 18-methyl-1-nonadecanol were tested for tumor growth suppressing effects on three different tumor cell strains (Ehrlich's mouse ascites carcinoma cells, human lung carcinoma A549 cells and mouse neuroblastoma NAs-1 cells).
The growth of mouse neuroblastoma NAs-1 cells was suppressed to 7.8×10^-3 and 6.5×10^-3, respectively.

bladder mucous membrane = test: Test 10: pathological changes in bladder mucous membrane after BBN and sodium erythorbate; assay type: in vivo, male F344 rats; settings: 250 mg/kg in feed; for Number of animals with cancer / Number of animals with papilloma / Number of animals with papillary or tuberous hyperplasia: 28 observed; for Number of animals with cancer: unadministered 19 of 27; for Number of animals with papilloma: unadministered 20 of 27; for Number of animals with papillary or tuberous hyperplasia: unadministered 27 of 27; for Cancer, incidence: unadministered 70; for Papilloma, incidence: unadministered 74; for Papillary or tuberous hyperplasia, incidence: unadministered 100
Excerpt: 5 groups of 6-week old male F344 rats were givn 0.05% (by weight. The definition is to be followed hereinafter) aqueous solution of N-butyl-N-(4-hydroxybutyl)nitrosoamine (BBN: bladder carcinogenic compound), as an initiator, by water supplying bottles for 4 weeks.

[2] = tested on: Ehrlich's mouse ascites carcinoma cells; test: Test 3: growth of Ehrlich's mouse ascites carcinoma cells; assay type: cell-based; settings: for tumor growth suppressing effect: Ehrlich's cells; for activity at 10 µM: Mus musculus, Ehrlich, 120 h, 5-day treatment at 10 μM, read-out: growth suppressed to
Protocol: as §1
These isomonools suppressed the growth of Ehrlich's ascites carcinoma cells to 4.5×10^-3 and 1.5×10^-2, respectively, by 5-day treatment at 10 μM.

[3] = tested on: human lung carcinoma A549 cells; test: Test 3: colony formation of human lung carcinoma A549 cells; assay type: cell-based; settings: for tumor growth suppressing effect: A549 cells; for activity at 10 µM: Homo sapiens, A549, 6-hour treatment at 10 μM, read-out: colony formation rate
Protocol: as §1
These isomonools suppressed the colony formation rate of human lung A549 cells to 2.2×10^-3 and 4.1×10^-3, respectively, by 6-hour treatment at 10 μM.

[4] = tested on: Ehrlich's ascites carcinoma cells; test: Test 1: survival of mice inoculated with Ehrlich's ascites carcinoma cells; assay type: in vivo, ddY mice; settings: i.p., 10 mg/kg/day for 5 days, from 24 hours after inoculation
Protocol: 5-week old ddY mice were intraperitoneally inoculated with 10^6 Ehrlich's ascites carcinoma cells. Since 24 hours later, 50 mg/ml suspension of a test compound in 0.25% (% by weight. The definition is to be followed hereinafter) solution of Pluronic F68 in physiological saline was intraperitoneally injected to 10 animals/group at a dose of 10 mg/kg/day for 5 days.

[5] = Carcinostatic, carcinostasis-reinforcing and carcinogenesis-preventing activities (general statement)
stomach carcinoma = test: Test 9: stomach carcinoma after MNNG; assay type: in vivo, male Wistar rats; settings: for Histological classification (per animal) / Borrmann's Classification (per animal): 250 mg/kg feed orally for 126 days after MNNG; for Borrmann's Classification (per animal): gross observation; for Survival time (per animal): 250 mg/kg feed, 337 = day of sacrifice; for Cause of death (per animal): 250 mg/kg feed orally
Protocol: 40 male Wistar rats (8-9-week old, body weight; 110 g) were given a drinking water containing 167 μg/ml of N-methyl-N'-nitro-N-nitrosoguanidine (MNNG: a carcinogenic compound) and a feed (dry pellets CE-2, produced by CLEA JAPAN) for 210 days.
The rats were allotted to 5 groups and treated as follows since the 211th day.
Administered group A: n=8. The compound A of the present invention (See below. The definition is to be followed hereinafter) was administered orally in an amount of 250 mg/kg feed for 126 consecutive days.
Administered group B: n=8. The compound B of the present invention was administered orally in an amount of 250 mg/kg feed for 126 consecutive days.
Administered group C: n=8. The compound C of the present invention was administered orally in an amount of 250 mg/kg feed for 126 consecutive days.
Administered group D: n=8. The compound D of the present invention was administered orally in an amount of 250 mg/kg feed for 126 consecutive days.
On the 337th day, the survining rats were sacrificed and the stomachs were (1) subjected to Borrmann's classification according to gross observation and (2) histologically observed (haematoxylin-eosin stain or ASAN stain), and then classified as follows.

Ehrlich's ascites cells = test: Test 6 and Comparing Test 2: uptake of bleomycin into Ehrlich's ascites cells; assay type: cell-based, mouse; settings: bleomycin 60 μg/ml + isomonool 0.05 μM
Protocol: The amount of bleomycin taken up into Ehrlich's ascites cells was determined as a function of time in the case where bleomycin (60 μg/ml) was used in combination with 14-methyl-1-pentadecanol (0.05 μM).

[6] = tested on: Ehrlich's mouse ascites carcinoma cells; test: Test 7 and Comparing Tests 3 and 4: survival of mice inoculated with Ehrlich's mouse ascites carcinoma cells; assay type: in vivo, male C57BL/6 mice; settings: bleomycin + isomonool; for Number of surviving mice: of 8
Protocol: 5-week old male C57BL/6 mice were intraperitoneally inoculated with 10^6 Ehrlich's mouse ascites carcinoma cells. Since 24 hours later, a 50 μg/ml solution of bleomycin in 0.25% HCO-60 solution in physiological saline, and a suspension containing 50 μg/ml of bleomycin and 5 μg/ml of 14-methyl-1-pentadecanol were intraperitoneally injected at a dose of 10 mg/kg·day and 11 mg/kg·day, respectively, to each 8 animals/group for 5 days. The survival time of the injected mice was then followed.

mammary cancer = test: Test 8: prevention of DMBA-induced mammary cancer; assay type: in vivo, female SD rats; settings: DMBA 5 mg/body, 20 weeks, unadministered 15/30
Protocol: 6-week old female SD rats (n=90) were treated as follows using 14-methyl-1-pentadecanol as a carcinogenesis-preventing agent.
Unadministered group: n=30. MF powder feed (ORIENTAL KOBO K.K.) was given as a basic feed.
Administered group A: n=30. A test feed was given continually (for 7 days). The feed was prepared by admixing the said carcinogenesis-preventing agent (after emulsified in Pluronic F-68) with the abovementioned basic feed in an amount of 50 mg/kg.
Administered group B: n=30. A test feed was given continually (for 7 days). The feed was prepared by admixing the said carcinogenesis-preventing agent (after emulsified in Pluronic F-68) with the abovementioned basic feed in an amount of 250 mg/kg.
After the aforementioned treatment, 5 mg/body of […] (DMBA: a carcinogenic compound) was administered by injecting subcutaneously in mammary gland 0.1 ml/body of a 50 mg/ml benzanthracene solution. Then, each of the aforementioned groups was given corresponding feed for 20 weeks.
After the completion of the treatment, the rats were sacrificed and observed for the occurrence of mammary cancer.

adenocarcinoma 755 cells = test: Test 2: tumor growth suppression in mice inoculated with adenocarcinoma 755 cells; assay type: in vivo, F1 mongrel mice of C57BL/6 and DBA/2; settings: s.c., 10 mg/kg/day for 5 days; 10 days after inoculation; control 6.5
Excerpt: 6-week old F1 mongrel mice of C57BL/6 and DBA/2 were inoculated under back skin with 10^6 adenocarcinoma 755 cells. […] The animals were sacrificed 10 days after the inoculation with adenocarcinoma 755 cells, and the tumor was excised.

## CC(C)CCCCCCCCCCCCCCCCCO [18-methyl-1-nonadecanol]
[1]
  tumor growth suppressing effect: effective
  growth suppressed to: 6.5×10^-3
Bladder mucous membrane
  Number of animals with cancer: 0
  Number of animals with papilloma: 0
  Number of animals with papillary or tuberous hyperplasia: 2
  Cancer, incidence: 0%
  Papilloma, incidence: 0%
  Papillary or tuberous hyperplasia, incidence: 7%
[2]
  tumor growth suppressing effect: effective
  activity at 10 µM: 1.5%
[3]
  tumor growth suppressing effect: effective
  activity at 10 µM: 0.41%

## CCC(C)CCCCCCCCCCCCCO (centres unmarked) [14-methyl-1-hexadecanol]
Bladder mucous membrane
  Number of animals with cancer: 0
  Number of animals with papilloma: 0
  Number of animals with papillary or tuberous hyperplasia: 0
  Cancer, incidence: 0%
  Papilloma, incidence: 0%
  Papillary or tuberous hyperplasia, incidence: 0%
[4]
  mean survival time after inoculation: 57.5 days
[5]
  carcinostatic, carcinostasis-reinforcing and carcinogenesis-preventing activities: especially potent in activities
Stomach carcinoma
  Histological classification (per animal): I and 0
  Borrmann's Classification (per animal): 0

## CC(C)CCCCCCCCCCCCCO [14-methyl-1-pentadecanol]
[1]
  tumor growth suppressing effect: effective
  growth suppressed to: 7.8×10^-3
Ehrlich's ascites cells; 30 min
  Bleomycin uptake: 0.13 μg/mg Ehrlich's cell
Ehrlich's ascites cells; 60 min
  Bleomycin uptake: 0.26 μg/mg Ehrlich's cell
Ehrlich's ascites cells; 120 min
  Bleomycin uptake: 0.39 μg/mg Ehrlich's cell
Ehrlich's ascites cells; 180 min
  Bleomycin uptake: 0.55 μg/mg Ehrlich's cell
Ehrlich's ascites cells; Initial
  Bleomycin uptake: 0 μg/mg Ehrlich's cell
[2]
  tumor growth suppressing effect: effective
  activity at 10 µM: 0.45%
[6]; i.p., 11 mg/kg.day for 5 days (Test 7)
  mean survival time after inoculation: 54.3 days
[6]; day 14
  Number of surviving mice: 8
[6]; day 15
  Number of surviving mice: 8
[6]; day 16
  Number of surviving mice: 8
[6]; day 17
  Number of surviving mice: 8
[6]; day 18
  Number of surviving mice: 8
[6]; day 19
  Number of surviving mice: 8
[6]; day 20
  Number of surviving mice: 8
[6]; day 23
  Number of surviving mice: 8
[6]; day 33
  Number of surviving mice: 8
[6]; day 41
  Number of surviving mice: 8
[6]; day 45
  Number of surviving mice: 6
[6]; day 52
  Number of surviving mice: 4
[6]; day 57
  Number of surviving mice: 4
[6]; day 60
  Number of surviving mice: 4
[3]
  tumor growth suppressing effect: effective
  activity at 10 µM: 0.22%
[4]
  mean survival time after inoculation: ≥ 60 days
Mammary cancer; group A, 50 mg/kg in feed
  Number of animals with mammary cancer/Number of tested animals: 8/30
Mammary cancer; group B, 250 mg/kg in feed
  Number of animals with mammary cancer/Number of tested animals: 4/30
[5]
  carcinostatic, carcinostasis-reinforcing and carcinogenesis-preventing activities: especially potent in activities
Stomach carcinoma
  Histological classification (per animal): I and 0
  Borrmann's Classification (per animal): 0
  Survival time (per animal): 337 days

## CCC(C)CCCCCCCCCCCCCCCO (centres unmarked) [16-methyl-1-octadecanol]
Adenocarcinoma 755 cells
  mean tumor weight: 2.3 g
Stomach carcinoma
  Cause of death (per animal): dead in cage
  Histological classification (per animal): I and 0 and I-II
  Borrmann's Classification (per animal): 0
  Survival time (per animal): 301 days and 312 days and 337 days

## CCCC(C)CCCCCCCCCCCCCO (centres unmarked) [14-methyl-1-heptadecanol]
Bladder mucous membrane
  Number of animals with cancer: 0
  Number of animals with papilloma: 0
  Number of animals with papillary or tuberous hyperplasia: 0
  Cancer, incidence: 0%
  Papilloma, incidence: 0%
  Papillary or tuberous hyperplasia, incidence: 0%

## CC(C)CCCCCCCCCCCCCCCO [16-methyl-1-heptadecanol]
Bladder mucous membrane
  Number of animals with cancer: 0
  Number of animals with papilloma: 0
  Number of animals with papillary or tuberous hyperplasia: 1
  Cancer, incidence: 0%
  Papilloma, incidence: 0%
  Papillary or tuberous hyperplasia, incidence: 4%
Adenocarcinoma 755 cells
  mean tumor weight: 1.6 g
Stomach carcinoma
  Cause of death (per animal): dead in cage
  Histological classification (per animal): 0 and I-II
  Borrmann's Classification (per animal): 0
  Survival time (per animal): 305 days and 337 days
